Laboratory results reported in US11896589B2, “Diazinyl amino acridines and medical uses thereof” (MyCural Therapeutics AB, priority 2018, dated 2024).
Where two headings read alike, the source gives them in different places.

Key:
[1] = system: MYC-ER driven transcription of ODC1, RSG16, CR2 in U2OS-MYC-ER cells; experiment: Assay 4 MYC target gene expression (RT-qPCR); assay type: cell-based
Description: FIG. 5: A) Inhibition of MYC transactivation of target genes (A) ODC1, (B) RSG16, and (C) CR2 as determined by RT-qPCR analysis, based on three biological experiments with three technical repeats each. U2OS-MYC-ER cells were treated with or without 100 nM 4-hydroxy-tamoxifen (HOT) for 4 hours, after which DMSO or Example 1 was added for 24 hours before total RNA was extraction. Fold changes in mRNA expression are presented relative to DMSO in non-HOT-treated cells after normalization to GAPDH, used as reference gene. Assay 4: Gene Expression To investigate the effect of the compounds on MYC-driven transcription, we utilized U2OS cells containing a MYC-estrogen receptor (MYC-ER) fusion protein, the activity of which is regulated by the ligand 4-hydroxytamoxifen (HOT). RT-qPCR was performed essentially as described in Bahram, F. et al. Interferon-gamma-induced p27KIP1 binds to and targets MYC for proteasome-mediated degradation. Oncotarget 7, 2837-2854, doi:10.18632/oncotarget.6693 (2016).

[2] = system: non-MYCN-amplified neuroblastoma cells (SK-N-F1, SK-N-RA, SK-N-AS); experiment: Assay 5A neuroblastoma cell growth (WST-1), non-MYCN-amplified; assay type: cell-based
Description: FIG. 6: A-B) Neuroblastoma cell lines with (SK-N-DZ, Kelly and IMR-32) or without (SK-N-F1, SK-N-RA and SK-N-AS) MYCN-amplification were exposed to different concentrations of Example 1, Example 2 and control compound, respectively, for 48 hours. Cell growth and viability was estimated by measuring metabolic activity. C) Growth of TGR-1 (wt), HO15.19 (MYC knockout) and HOmyc3 (MYC reconstituted HO15.19) Rat1 fibroblasts, as measured by the WST-1 assay after treatment with Example 1. Data are shown as mean±standard deviation of 3-5 biological experiments, each with 3 technical repeats.
Assay 5A: Neuroblastoma Cell Growth
Neuroblastoma cell lines with (SK-N-DZ, Kelly and IMR-32) or without (SK-N-F1, SK-N-RA and SK-N-AS) MYCN-amplification were exposed to different concentrations of example compounds for 48 hours. Cell growth and viability was estimated by measuring metabolic activity by incubating cells in triplicates with WST-1 (Roche) in medium at 37° C. and 5% CO2 for 2 hours after which absorbance was measured with an Omega Fluostar (BMG Labtech) in a 96 well plate format.

MYCbHLHZip = molecular target: T1, MYCbHLHZip (Homo sapiens, UniProt P01106); experiment: Assay 2B MYC SPR assay; assay type: binding
T1 construct: An amino coupling procedure was used to immobilize MYCbHLHZip protein on a CM5 sensor chip
Description: FIG. 3: A) SPR assay to determine affinity of Example 1 to MYC. MYC bHLHZip protein was immobilized by aminocoupling on a CM5 sensor chip. Example 1 was injected at various concentrations in a kinetic experiment. The reference surface was subtracted from the analyte surface to generate a sensorgram. […] B) Four MYC equilibrium binding experiments with Example 1 summarized in an equilibrium binding plot. […] Equilibrium binding experiments of MYC with Example 2 and control compound (non-binder) were plotted as well. Assay 2B. MYC SPR Assay To analyze the direct binding of compounds to MYC, the direct binding of compounds to MYC was detected by surface plasmon resonance (SPR) as described above (Biological example 1—Assay 1B). An amino coupling procedure was used to immobilize MYCbHLHZip protein on a CM5 sensor chip (GE Healthcare) resulting in immobilization levels of approximately 800 respectively 1000 RU. The compounds were injected at different concentrations, one at a time, over the surface for 50-80 seconds with a flow rate of 30 μl/min. Afterwards the compounds were allowed to dissociate for 240 seconds in running buffer (137 mM NaCl, 2.7 mM KCl, 10 mM Na2HPO4, 1.8 mM KH2PO4, 0.005% Tween-20, 1% DMSO, pH 7.4). To remove all remaining analyte the surface was regenerated with 2M Urea for 30 seconds and thereafter 1M NaCl, 2.7 mM KCl, 10 mM Na2HPO4, 1.8 mM KH2PO4, 1% DMSO, pH 7.4 for 30 seconds. Sensorgrams were generated by subtraction of the reference (blank immobilized) surface. Binding responses were related to respective compounds' Rmax. Rmax is the maximum response of a compound when it binds with a 1:1 stochiometry to the protein; Rmax=(MW analyte/MW ligand)×immobilized ligand level on the chip (RU) x stoichiometry (1:1). Kinetic experiments were carried out where recombinant MYC bHLHZip was immobilized on the chip and different concentrations of Example 1 were injected as above. […] Example 2-6 were analyzed for their MYC binding properties by equilibrium binding experiments as described for example 1.

T1 sequence (P01106 368-449 limits assumed): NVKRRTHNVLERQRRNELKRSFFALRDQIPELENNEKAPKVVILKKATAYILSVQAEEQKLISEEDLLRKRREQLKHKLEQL

CCOc1ccc2nc3cc(/N=N/c4ccc(N)nc4N)ccc3c(N)c2c1 [Example 1, 3-((9-amino-7-ethoxyacridin-3-yl)diazenyl)pyridine-2,6-diamine sulphate hydrate]
inhibition of gene expression, CR2 gene ([1]; 10 μM): 100%
inhibition of gene expression, ODC1 gene ([1]; 10 μM): 100%
inhibition of gene expression, RSG16 gene ([1]; 10 μM): 68%
HOT-induced expression of all three MYC target genes ([1]; 24 hours): significantly reduced
GI50 ([2]; Homo sapiens, SK-N-AS, 48 h, first run): > 20000 nM
GI50 ([2]; Homo sapiens, SK-N-AS, second run): > 25000 nM
GI50 ([2]; first run, 48 hours, sulphate hydrate): > 25000 nM
Kd (MYCbHLHZip; 1:1 Langmuir model, read-out: KD (average of four kinetic experiments)): 1600 ± 500 nM
Kd (MYCbHLHZip; Langmuir 1:1, constant Rmax 43 RU, read-out: KD (one representative kinetic experiment)): 2500 nM
Binding relative to Rmax (MYCbHLHZip; equilibrium binding experiments): 1.6 Response Units
kon (MYCbHLHZip; representative kinetic experiment, read-out: association rate ka): 9290 M⁻¹ s⁻¹
koff (MYCbHLHZip; representative kinetic experiment, read-out: dissociation rate kd): 0.0229 s⁻¹
